In patent US20060069132A1, “Azolecarboxamide herbicides” (priority 2004, published 2006):

Legend:
[1] = tested on: giant foxtail; assay: Test B pre-/postemergence herbicide test; format: in vivo, Setaria faberi
Summary of the method: (§1)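 Greenhouse pot assay with simultaneous preemergence (treated seed) and postemergence (2–18 cm seedlings) applications of surfactant-containing, non-phytotoxic solvent formulations. Response scored visually 13–15 days later on a 0–100 scale, 100 meaning complete control.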

[2] = tested on: barnyardgrass; assay: Test A pre-/postemergence herbicide test; format: in vivo, Echinochloa crus-galli
Summary of the method: (§2)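 Plants are held in greenhouse about ten days after treatment, then compared with untreated controls and scored 0 (no effect) to 100 (complete control). Preemergence dosing is a directed soil spray on sown sandy loam; postemergence dosing is spray to runoff at 2–10 cm height.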

[3] = tested on: giant foxtail; assay: Test A pre-/postemergence herbicide test; format: in vivo, Setaria faberi
Summary of the method: as §2

[4] = tested on: corn; assay: Test B pre-/postemergence herbicide test; format: in vivo, Zea mays
Summary of the method: as §1

[5] = tested on: lambsquarters; assay: Test B pre-/postemergence herbicide test; format: in vivo, Chenopodium album
Summary of the method: as §1

[6] = tested on: morningglory; assay: Test A pre-/postemergence herbicide test; format: in vivo, Ipomoea spp.
Summary of the method: as §2

[7] = tested on: cocklebur; assay: Test B pre-/postemergence herbicide test; format: in vivo, Xanthium strumarium
Summary of the method: (§3)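 Flooded paddy rice and barnyardgrass were treated at the 2-leaf stage; upland plantings received compound either on sown seed or on 1- to 4-leaf seedlings. All were kept 13–15 days in a greenhouse and scored visually, 0–100, relative to untreated plants.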

[8] = tested on: small flower umbrella sedge; assay: Test B flooded paddy test; format: in vivo, Cyperus difformis; conditions: 1000 g ai/ha, visual rating, scale 0 to 100 (0 no effect, 100 complete control), 13 to 15 days
Summary of the method: (§4)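 After treating 2-leaf paddy plants or 2–18 cm postemergence plants (1 to 4 leaves) with formulated chemical, researchers kept them in a greenhouse for 13–15 days. Effects were judged visually versus controls: 0 indicates none, 100 total control.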

[9] = tested on: velvetleaf; assay: Test A pre-/postemergence herbicide test; format: in vivo, Abutilon theophrasti
Summary of the method: as §2

[10] = tested on: velvetleaf; assay: Test B pre-/postemergence herbicide test; format: in vivo, Abutilon theophrasti
Summary of the method: as §1

[11] = tested on: wild oat; assay: Test B postemergence herbicide test; format: in vivo, Avena fatua; conditions: scale 0 (no effect) to 100 (complete control); for Plant response rating, Oat, Wild: Postemergence, 500 g ai/ha, visual rating after 13 to 15 days; for Oat, Wild plant response rating: postemergence, 125 g ai/ha, visual rating
Summary of the method: as §4

[12] = tested on: large crabgrass; assay: Test A pre-/postemergence herbicide test; format: in vivo, Digitaria sanguinalis
Summary of the method: as §2

[13] = tested on: ducksalad; assay: Test B flooded paddy test; format: in vivo, Heteranthera limosa; conditions: 1000 g ai/ha, visual rating, scale 0 to 100 (0 no effect, 100 complete control), 13 to 15 days
Summary of the method: as §4

[14] = tested on: morningglory; assay: Test B pre-/postemergence herbicide test; format: in vivo, Ipomoea coccinea
Summary of the method: as §3

[15] = tested on: barnyardgrass; assay: Test B pre-/postemergence herbicide test; format: in vivo, Echinochloa crus-galli
Summary of the method: as §3

[16] = tested on: rice; assay: Test B flooded paddy test; format: in vivo, Oryza sativa; conditions: 1000 g ai/ha, visual rating, scale 0 to 100 (0 no effect, 100 complete control), 13 to 15 days
Summary of the method: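 Greenhouse test; postemergence application to plants at 1–4 leaves (2–18 cm); paddy species at 2 leaves; evaluated visually vs controls at 13–15 days; scale 0–100 (100 = complete control).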

[17] = tested on: rice; assay: Test B pre-/postemergence herbicide test; format: in vivo, Oryza sativa; conditions: for Plant response rating, Rice: preemergence, 125 g ai/ha, 0 to 100 scale, 0 is no effect, 100 is complete control
Summary of the method: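 Species tested were Echinochloa crus-galli, Ipomoea coccinea, Xanthium strumarium and Oryza sativa, treated both before emergence and at the 1- to 4-leaf stage; rice and barnyardgrass were also tested under flooding at 2 leaves. Greenhouse incubation lasted 13–15 days before visual 0–100 scoring.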

[18] = tested on: large crabgrass; assay: Test B pre-/postemergence herbicide test; format: in vivo, Digitaria sanguinalis
Summary of the method: as §1

[19] = tested on: redroot pigweed; assay: Test A pre-/postemergence herbicide test; format: in vivo, Amaranthus retroflexus
Summary of the method: as §2

[20] = tested on: wheat; assay: Test B postemergence herbicide test; format: in vivo, Triticum aestivum; design: key to Wheat plant response rating: 0 = no effect, 100 = complete control; conditions: scale 0 (no effect) to 100 (complete control); for Plant response rating, Wheat: Postemergence, 500 g ai/ha, visual rating after 13 to 15 days; for Wheat plant response rating: postemergence, 125 g ai/ha, visual rating
Summary of the method: as §4

[21] = tested on: Surinam grass; assay: Test B pre-/postemergence herbicide test; format: in vivo, Urochloa decumbens
Summary of the method: as §1

[22] = tested on: pigweed; assay: Test B pre-/postemergence herbicide test; format: in vivo, Amaranthus retroflexus
Summary of the method: as §1

[23] = tested on: blackgrass; assay: Test B postemergence herbicide test; format: in vivo, Alopecurus myosuroides; conditions: scale 0 (no effect) to 100 (complete control); for Plant response rating, Blackgrass: Postemergence, 500 g ai/ha, visual rating after 13 to 15 days; for Blackgrass plant response rating: postemergence, 125 g ai/ha, visual rating
Summary of the method: as §4

[24] = tested on: barnyardgrass; assay: Test B flooded paddy test; format: in vivo, Echinochloa crus-galli; conditions: 1000 g ai/ha, visual rating, scale 0 to 100 (0 no effect, 100 complete control), 13 to 15 days
Summary of the method: as §4

[25] = Postemergence, 500 g ai/ha, visual rating after 13 to 15 days, scale 0 (no effect) to 100 (complete control)
[26] = Preemergence, 500 g ai/ha, scale 0 to 100
[27] = postemergence, 125 g ai/ha, visual rating, scale 0 (no effect) to 100 (complete control)
[28] = preemergence, 125 g ai/ha, 0 to 100 scale, 0 is no effect, 100 is complete control
[29] = Postemergence, 500 g ai/ha, 0 to 100 scale, 0 no effect, 100 complete control
[30] = Postemergence, 2000 g ai/ha, 0 to 100 scale, 0 no effect, 100 complete control
[31] = Preemergence, 500 g ai/ha, visual rating, 0 to 100 scale (0 no effect, 100 complete control)
[32] = Preemergence, 2000 g ai/ha, 0 to 100 scale, 0 no effect, 100 complete control

Compound: CCn1nc(C(C)(C)C)cc1C(=O)Nc1cccc(C(=O)OC)c1C [Compound 87]
- Plant response rating, Foxtail, Giant [1, 25]: 0
- Foxtail, Giant plant response rating [1, 26]: 80
- Foxtail, Giant plant response rating [1, 27]: 0
- Plant response rating, Foxtail, Giant [1, 28]: 10
- Barnyardgrass plant response rating [2, 29]: 15
- Plant response rating, Barnyardgrass [2, 30]: 55
- Barnyardgrass plant response rating [2, 31]: 55
- Barnyardgrass plant response rating [2, 32]: 90
- Foxtail, Giant plant response rating [3, 29]: 20
- Plant response rating, Foxtail, Giant [3, 30]: 50
- Foxtail, Giant plant response rating [3, 31]: 35
- Foxtail, Giant plant response rating [3, 32]: 90
- Plant response rating, Corn [4, 25]: 0
- Corn plant response rating [4, 26]: 0
- Corn plant response rating [4, 27]: 0
- Plant response rating, Corn [4, 28]: 0
- Plant response rating, Lambsquarters [5, 25]: 0
- Lambsquarters plant response rating [5, 27]: 0
- Plant response rating, Lambsquarters [5, 28]: 70
- Morningglory plant response rating [6, 29]: 15
- Plant response rating, Morningglory [6, 30]: 20
- Morningglory plant response rating [6, 31]: 15
- Morningglory plant response rating [6, 32]: 15
- Plant response rating, Cocklebur [7, 25]: 0
- Cocklebur plant response rating [7, 26]: 0
- Cocklebur plant response rating [7, 27]: 0
- Plant response rating, Cocklebur [7, 28]: 0
- Sedge, Umbrella plant response rating [8]: 80
- Velvetleaf plant response rating [9, 29]: 10
- Plant response rating, Velvetleaf [9, 30]: 25
- Velvetleaf plant response rating [9, 31]: 25
- Velvetleaf plant response rating ([9]; Preemergence, 2000 g ai/ha, visual rating, 0 to 100 scale (0 no effect, 100 complete control)): 65
- Plant response rating, Velvetleaf [10, 25]: 0
- Velvetleaf plant response rating [10, 27]: 0
- Plant response rating, Velvetleaf [10, 28]: 0
- Plant response rating, Oat, Wild [11]: 0
- Oat, Wild plant response rating [11]: 0
- Crabgrass, Large plant response rating [12, 29]: 20
- Plant response rating, Crabgrass, Large [12, 30]: 60
- Crabgrass, Large plant response rating [12, 31]: 90
- Crabgrass, Large plant response rating [12, 32]: 95
- Ducksalad plant response rating [13]: 20
- Plant response rating, Morningglory [14, 25]: 0
- Morningglory plant response rating [14, 27]: 0
- Plant response rating, Morningglory [14, 28]: 0
- Plant response rating, Barnyardgrass [15, 25]: 0
- Barnyardgrass plant response rating [15, 26]: 70
- Barnyardgrass plant response rating [15, 27]: 0
- Plant response rating, Barnyardgrass [15, 28]: 20
- Rice plant response rating [16]: 10
- Plant response rating, Rice [17]: 0
- Plant response rating, Crabgrass, Large [18, 25]: 60
- Crabgrass, Large plant response rating [18, 26]: 100
- Crabgrass, Large plant response rating [18, 27]: 0
- Plant response rating, Crabgrass, Large [18, 28]: 90
- Pigweed plant response rating [19, 29]: 10
- Plant response rating, Pigweed [19, 30]: 35
- Pigweed plant response rating [19, 31]: 60
- Pigweed plant response rating [19, 32]: 95
- Plant response rating, Wheat [20]: 0
- Wheat plant response rating [20]: 0
- Plant response rating, Surinam Grass [21, 25]: 0
- Surinam Grass plant response rating [21, 27]: 0
- Plant response rating, Surinam Grass [21, 28]: 0
- Plant response rating, Pigweed [22, 25]: 0
- Pigweed plant response rating [22, 27]: 0
- Plant response rating, Pigweed [22, 28]: 40
- Plant response rating, Blackgrass [23]: 0
- Blackgrass plant response rating [23]: 0
- Barnyardgrass plant response rating [24]: 20

Compound: CCn1nc(C(C)(C)C)cc1C(=O)Nc1cccc2c1CNC2=O [Compound 52]
- Plant response rating, Foxtail, Giant [1, 25]: 10
- Foxtail, Giant plant response rating [1, 26]: 60
- Foxtail, Giant plant response rating [1, 27]: 10
- Plant response rating, Foxtail, Giant [1, 28]: 10
- Plant response rating, Barnyardgrass [2, 29]: 25
- Plant response rating, Barnyardgrass [2, 30]: 55
- Barnyardgrass plant response rating [2, 31]: 25
- Barnyardgrass plant response rating [2, 32]: 90
- Plant response rating, Foxtail, Giant [3, 29]: 25
- Plant response rating, Foxtail, Giant [3, 30]: 25
- Foxtail, Giant plant response rating [3, 31]: 20
- Foxtail, Giant plant response rating [3, 32]: 60
- Plant response rating, Corn [4, 25]: 40
- Corn plant response rating [4, 26]: 0
- Corn plant response rating [4, 27]: 10
- Plant response rating, Corn [4, 28]: 0
- Plant response rating, Lambsquarters [5, 25]: 80
- Lambsquarters plant response rating [5, 26]: 90
- Lambsquarters plant response rating [5, 27]: 0
- Plant response rating, Lambsquarters [5, 28]: 0
- Plant response rating, Morningglory [6, 29]: 0
- Plant response rating, Morningglory [6, 30]: 0
- Morningglory plant response rating [6, 31]: 0
- Morningglory plant response rating [6, 32]: 10
- Plant response rating, Cocklebur [7, 25]: 40
- Cocklebur plant response rating [7, 26]: 10
- Cocklebur plant response rating [7, 27]: 20
- Plant response rating, Cocklebur [7, 28]: 0
- Sedge, Umbrella plant response rating [8]: 40
- Plant response rating, Velvetleaf [9, 30]: 20
- Velvetleaf plant response rating [9, 31]: 15
- Velvetleaf plant response rating [9, 32]: 50
- Plant response rating, Velvetleaf [10, 25]: 20
- Velvetleaf plant response rating [10, 26]: 20
- Velvetleaf plant response rating [10, 27]: 10
- Plant response rating, Velvetleaf [10, 28]: 0
- Plant response rating, Oat, Wild [11]: 10
- Oat, Wild plant response rating [11]: 0
- Plant response rating, Crabgrass, Large [12, 29]: 0
- Plant response rating, Crabgrass, Large [12, 30]: 20
- Crabgrass, Large plant response rating [12, 31]: 70
- Crabgrass, Large plant response rating [12, 32]: 90
- Ducksalad plant response rating [13]: 20
- Plant response rating, Morningglory [14, 25]: 0
- Morningglory plant response rating [14, 26]: 0
- Morningglory plant response rating [14, 27]: 0
- Plant response rating, Morningglory [14, 28]: 0
- Plant response rating, Barnyardgrass [15, 25]: 0
- Barnyardgrass plant response rating [15, 26]: 60
- Barnyardgrass plant response rating [15, 27]: 0
- Plant response rating, Barnyardgrass [15, 28]: 10
- Rice plant response rating [16]: 0
- Rice plant response rating [17, 26]: 80
- Plant response rating, Rice [17]: 0
- Plant response rating, Crabgrass, Large [18, 25]: 10
- Crabgrass, Large plant response rating [18, 26]: 90
- Crabgrass, Large plant response rating [18, 27]: 0
- Plant response rating, Crabgrass, Large [18, 28]: 20
- Plant response rating, Pigweed [19, 29]: 30
- Plant response rating, Pigweed [19, 30]: 35
- Pigweed plant response rating [19, 31]: 90
- Pigweed plant response rating [19, 32]: 90
- Plant response rating, Wheat [20]: 0
- Wheat plant response rating [20]: 0
- Plant response rating, Surinam Grass [21, 25]: 0
- Surinam Grass plant response rating [21, 26]: 30
- Surinam Grass plant response rating [21, 27]: 0
- Plant response rating, Surinam Grass [21, 28]: 0
- Plant response rating, Pigweed [22, 25]: 10
- Pigweed plant response rating [22, 26]: 90
- Pigweed plant response rating [22, 27]: 0
- Plant response rating, Pigweed [22, 28]: 0
- Plant response rating, Blackgrass [23]: 0
- Blackgrass plant response rating [23]: 0
- Barnyardgrass plant response rating [24]: 20
